Tests used:
[1] = refractive index (Na D-line) (dimensionless); xn = mol fraction of the nth substance listed; settings: 100.5 kPa, Liquid, Standard Abbe refractometry
[2] = xn = mol fraction of the nth substance listed

CC(=O)OCCC(C)C [3-methylbutyl ethanoate] + CCO
Settings	refractive index, [1]	surface tension liquid-gas, [2] [mN/m]
288.15 K, x1 = 0.05	1.36803	23.2
288.15 K, x1 = 0.1	1.37207	23.4
288.15 K, x1 = 0.15	1.37559	23.6
288.15 K, x1 = 0.2	1.3787	23.7
288.15 K, x1 = 0.25	1.38146	23.8
288.15 K, x1 = 0.3	1.38393	24
288.15 K, x1 = 0.35	1.38614	24.1
288.15 K, x1 = 0.4	1.38814	24.2
288.15 K, x1 = 0.45	1.38996	24.3
288.15 K, x1 = 0.5	1.39164	24.4
288.15 K, x1 = 0.55	1.39319	24.5
288.15 K, x1 = 0.6	1.39462	24.6
288.15 K, x1 = 0.65	1.39595	24.7
288.15 K, x1 = 0.7	1.39717	24.8
288.15 K, x1 = 0.75	1.39829	24.9
288.15 K, x1 = 0.8	1.39933	25
288.15 K, x1 = 0.85	1.40031	25.1
288.15 K, x1 = 0.9	1.40122	25.2
288.15 K, x1 = 0.95	1.40207	25.3
288.15 K, x1 = 1	1.40288	25.4
298.15 K, x1 = 0.05	1.36393	22.4
298.15 K, x1 = 0.1	1.36787	22.5
298.15 K, x1 = 0.15	1.37133	22.7
298.15 K, x1 = 0.2	1.3744	22.8
298.15 K, x1 = 0.25	1.37712	22.9
298.15 K, x1 = 0.3	1.37954	–
298.15 K, x1 = 0.35	1.38172	23
298.15 K, x1 = 0.4	1.3837	23.1
298.15 K, x1 = 0.45	1.3855	23.2
298.15 K, x1 = 0.5	1.38717	23.3
298.15 K, x1 = 0.55	1.38871	23.4
298.15 K, x1 = 0.6	1.39013	23.5
298.15 K, x1 = 0.65	1.39144	23.6
298.15 K, x1 = 0.7	1.39265	23.7
298.15 K, x1 = 0.75	1.39378	23.8
298.15 K, x1 = 0.8	1.39482	23.9
298.15 K, x1 = 0.85	1.3958	24
298.15 K, x1 = 0.9	1.3967	24.1
298.15 K, x1 = 0.95	1.39755	24.2
298.15 K, x1 = 1	1.39836	24.3
308.15 K, x1 = 0.05	1.35964	21.6
308.15 K, x1 = 0.1	1.36349	21.6
308.15 K, x1 = 0.15	1.3669	21.7
308.15 K, x1 = 0.2	1.36992	21.8
308.15 K, x1 = 0.25	1.3726	21.9
308.15 K, x1 = 0.3	1.37499	22
308.15 K, x1 = 0.35	1.37714	22.1
308.15 K, x1 = 0.4	1.37909	22.2
308.15 K, x1 = 0.45	1.38087	22.3
308.15 K, x1 = 0.5	1.38251	22.4
308.15 K, x1 = 0.55	1.38404	22.5
308.15 K, x1 = 0.6	1.38545	22.6
308.15 K, x1 = 0.65	1.38675	22.7
308.15 K, x1 = 0.7	1.38795	22.8
308.15 K, x1 = 0.75	1.38907	22.9
308.15 K, x1 = 0.8	1.39011	23
308.15 K, x1 = 0.85	1.39109	23.1
308.15 K, x1 = 0.9	1.39199	23.2
308.15 K, x1 = 0.95	1.39284	23.3
308.15 K, x1 = 1	1.39365	23.4
318.15 K, x1 = 0.05	1.35556	20.6
318.15 K, x1 = 0.1	1.3593	20.6
318.15 K, x1 = 0.15	1.36263	20.7
318.15 K, x1 = 0.2	1.36558	20.8
318.15 K, x1 = 0.25	1.36821	20.9
318.15 K, x1 = 0.3	1.37056	21
318.15 K, x1 = 0.35	1.37268	21.1
318.15 K, x1 = 0.4	1.3746	21.2
318.15 K, x1 = 0.45	1.37634	21.3
318.15 K, x1 = 0.5	1.37795	21.4
318.15 K, x1 = 0.55	1.37944	21.5
318.15 K, x1 = 0.6	1.38082	21.6
318.15 K, x1 = 0.65	1.38211	21.7
318.15 K, x1 = 0.7	1.3833	21.8
318.15 K, x1 = 0.75	1.3844	21.9
318.15 K, x1 = 0.8	1.38543	22
318.15 K, x1 = 0.85	1.3864	22.1
318.15 K, x1 = 0.9	1.3873	22.2
318.15 K, x1 = 0.95	1.38814	22.3
318.15 K, x1 = 1	1.38895	22.4
